# Reference: patent publication EP0265400A2, “Topical radioprotective gel for mucosa” (priority 1986, dated 1988)
# Several values for one entry are separate records, joined by “and”; a condition that tells them apart may be missing. Identical values can stand only once. Entries after “also recorded” stand apart in the source; their conditions may differ. Positions of bridges follow the written chain, without caps; N, C: chain ends. Residues, ends and D or L forms follow the SMILES beside them.
# Columns and labels:
# [1] = system: Irradiation-induced lesions in the mucosa; assay: Radioprotective effect of rectally applied gel on irradiated rectal mucosa: histological grading and body weight; format: in vivo, Wistar rats; settings: for Body weight change / Change of glandular structure / Fibrosis / Ulceration - abscessa development in crypts / Sum of parameters: one value per rat; for Sum of parameters: histological grading
# Protocol: For studies of the radioprotective effect of TGLVP Wistar rats (body weight 187-394 g) were used and treated in pairs at the same time. In each pair, one rat was treated rectally with TGLVP, while the other rat, the control rat, was given CMC solution rectally. The gels were applied in the same manner as described above. For anaesthesia, nembutal was given intraperitoneally. The rats were irradiated with 240 kV X-rays (0.2 Cu filtration), using AP and PA fields in size 4 × 3 cm. This gave a uniform dose in the lower part of the abdomen corresponding to the position of the rectum. 10 Gy were given on day 1, and 10 Gy on day 4. The rats were killed 14 days after the treatment, and the rectum was removed for histological analysis. The rats were weighed before treatment and when they were killed. 10 rats were treated with 1600 µg TGLVP 15 min before irradiation (Tables IV and V) 5 rats were treated with 800 µg TGLVP 15 min before irradiation (Table V) 10 rats were given 1600 µg TGLVP 30 min before treatment (Table III) 5 rats were given 3200 µg TGLVP 15 min before treatment (Table I) 5 rats were given 3200 µg TGLVP 30 min before treatment (Table II)
# Histological grading (sum of parameters) was performed in accordance with an evaluation system in which 0 is the normal structure and 6 indicates maximum change. Irradiation-induced lesions in the mucosa were determined arbitrarily by means of the following parameters: • 1: The extent of fibrosis in the mucosa and submucosa. • 2: The change of glandular structure in the mucosa. • 3: Ulcerations in the mucosa or abscesses in mucosal crypts.
# [2] = Studies of systemic circulation (dose titration) after rectal application of the gel: arterial pressure and pulse rate; format: in vivo, Wistar rats
# Protocol: The concentration of vasoconstrictive substance in the radioprotective gels according to the invention was determined according to the desire to provide a local vasoconstrictive effect (with subsequent hypoxia) in the mucosa, but without general secondary effect, such as blood pressure increase and bradycardia. To achieve this, dose titration studies of the different vasoconstrictive substances were carried out, i.e. the dose just below the threshold of general circulatory response was defined. Due to interaction (electrostatic binding) between the active substance and the different thickening agents, the dose for a specific vasoconstrictive substance varied depending upon the thickening agent employed.
# For studies of systematic circulation, Wistar rats (body weight 177-296 g) were used. TGLVP was administered rectally by means of a Nelaton-Foley catheter inserted through the anus until the balloon was 5 cm away from the anus. The balloon was then filled to ensure that the catheter stayed in position and to prevent TGLVP from reaching the upper parts of the bowel. TGLVP was dissolved in a 1% by weight aqueous solution of sodium carboxymethyl cellulose (CMC) and was in contact with all parts of the mucosa during the test. The volume applied amounted to half a milliliter. Three dose levels of TGLVP were tested, i.e. 800 µg, 1600 µg and 3200 µg. For each dose level, use was made of five rats and a corresponding number of controls which were given CMC solution only. For anaesthesia, nembutal was used intraperitoneally. Mean values for arterial pressure and puls rate were recorded by means of a catheter in the aorta via the femoral artery.
# Dose titration was carried out in a similar manner on AVP, LVP, TGLVP with other thickening agents, Angiotensin II and norepinephrine.
# [3] = TGLVP 3200 µg/g in 1 weight% carboxymethyl cellulose, dose 1600 µg, 30 min before irradiation
# [4] = TGLVP 3200 µg/g in 1 weight% carboxymethyl cellulose, dose 1600 µg, 30 min before irradiation, grade 0-6
# [5] = TGLVP 6400 µg/g in 1 weight% carboxymethyl cellulose, dose 3200 µg, 15 min before irradiation, grade 0-6
# [6] = TGLVP 6400 µg/g in 1 weight% carboxymethyl cellulose, dose 3200 µg, 30 min before irradiation
# [7] = TGLVP 6400 µg/g in 1 weight% carboxymethyl cellulose, dose 3200 µg, 30 min before irradiation, grade 0-6
compound,measurement,setting,value
"NCCCC[C@H](NC(=O)[C@@H]1CCCN1C(=O)[C@@H]1CSSC[C@H](NC(=O)CNC(=O)CNC(=O)CN)C(=O)N[C@@H](Cc2ccc(O)cc2)C(=O)N[C@@H](Cc2ccccc2)C(=O)N[C@@H](CCC(N)=O)C(=O)N[C@@H](CC(N)=O)C(=O)N1)C(=O)NCC(N)=O [TGLVP, triglycyl-lysine-vasopressin] (H-GGGCYFQNCPKG-NH2; disulfide 4-9)",function of the gel in radioprotective experiments,[1]; 1600-6400 µg per g of 1% by weight carboxymethyl cellulose in sterile deionised water,found to function as intended
same,Body weight change,[1]; [3],14 g and 3 g and 18 g and 7 g and 5 g
same,Change of glandular structure,[1]; [4],2 (4×) and 4
same,Fibrosis,[1]; [4],4 (4×) and 2
same,Ulceration - abscessa development in crypts,[1]; [4],0 (3×) and 2 (2×)
same,Sum of parameters,[1]; [3],6 (4×) and 10
same,Fibrosis,"[1]; TGLVP 6400 µg/g in 1 weight% carboxymethyl cellulose, dose 3200 µg rectally 15 min before irradiation (10 Gy day 1 and day 4), grade 0 normal, 6 maximum change, killed 14 days after treatment",4 and 2 (4×)
same,Body weight change,"[1]; TGLVP 6400 µg/g in 1 weight% carboxymethyl cellulose, dose 3200 µg, 15 min before irradiation, before treatment vs when killed",9 g and 4 g and 7 g and 15 g and 12 g
same,Change of glandular structure,[1]; [5],4 and 2 (2×) and 0 (2×)
same,Ulceration - abscessa development in crypts,[1]; [5],4 and 2 and 0 (3×)
same,Sum of parameters,"[1]; TGLVP 6400 µg/g in 1 weight% carboxymethyl cellulose, dose 3200 µg, 15 min before irradiation",12 and 6 and 2 (2×) and 4
same,Body weight change,[1]; [6],24 g and 7 g and 13 g and -2 g and 38 g
same,Change of glandular structure,[1]; [7],0 (2×) and 4 and 2 (2×)
same,Fibrosis,[1]; [7],4
same,Ulceration - abscessa development in crypts,[1]; [7],0 (2×) and 4 and 2 (2×)
same,Sum of parameters,[1]; [6],4 and 12 and 6 (2×) and 8
same,radioprotective effect,"[1]; dose of 1600 µg, rats",maximum radioprotective effect
same,radioprotection to the mucosa as compared with the controls,"[1]; dose of 3200, 1600 or 800 µg, irradiation 15 or 30 min after administration, summary of Tables I-V",gave radioprotection to the mucosa
same,radioprotection: effect of higher dose or longer time,"[1]; increase of dose from 1600 µg to 3200 µg, or of time from 15 to 30 min, compared with 1600 µg at 15 min, Tables I-IV",does not seem to give a better result
same,"protection, from body weight values","[1]; increasing the dose from 800 µg to 1600 µg, 15 min before irradiation, Table V",improved protection
same,circulatory changes,[2]; 128 µg in 0.9% by weight hydroxypropyl cellulose solution,without changes
same,circulatory changes,[2]; 128 µg in 1.2% by weight hydroxyethyl cellulose solution,no circulatory changes
same,circulatory changes,[2]; 256 µg in 0.9% by weight hydroxypropyl cellulose solution,without changes
same,blood pressure,"[2]; 256 µg in 1.2% by weight hydroxyethyl cellulose solution, at 75 and 90 minutes after application",gave a rise in blood pressure
same,pulse rate,"[2]; 256 µg in 1.2% by weight hydroxyethyl cellulose solution, at 5 minutes after application",decrease in pulse rate
same,circulatory changes (pulse),"[2]; 512 µg in 0.9% by weight hydroxypropyl cellulose solution, 15-120 minutes after application",gave a bradycardia
same,pulse rate,"[2]; 512 µg in 1.2% by weight hydroxyethyl cellulose solution, 10-45 minutes after application",bradycardia
same,blood pressure,"[2]; 512 µg in 1.2% by weight hydroxyethyl cellulose solution, 30 and 45 minutes after application",gave a rise in blood pressure
same,systemic circulatory response in the form of blood pressure increase or lower pulse,[2]; 800 µg rectally in 1% by weight sodium carboxymethyl cellulose (CMC),no systemic circulatory response
same,systemic circulatory response in the form of blood pressure increase or lower pulse,[2]; 1600 µg rectally in 1% by weight sodium carboxymethyl cellulose (CMC),no systemic circulatory response; also recorded: without general circulatory responses
same,systemic circulatory response in the form of blood pressure increase or lower pulse,[2]; 3200 µg rectally in 1% by weight sodium carboxymethyl cellulose (CMC),caused blood pressure increase in several animals
NC[C@H](O)c1ccc(O)c(O)c1 [norepinephrine],function of the gel in radioprotective experiments,[1]; 2 mg per g of 0.6% by weight hydroxyethyl cellulose in sterile deionised water,found to function as intended
same,"cases with radioprotection to the mucosa, as compared with the controls","[1]; dose of 1 mg, irradiation 15 min after administration, Table IX",5 out of 6
Angiotensin II,function of the gel in radioprotective experiments,[1]; 250 µg per g of 0.6% by weight hydroxyethyl cellulose in sterile deionised water,found to function as intended
same,"cases with radioprotection to the mucosa, as compared with the controls","[1]; dose of 125 µg, irradiation 15 min after administration, Table VIII",5 out of 6
"Angiotensin II (DRVYIHPF; Angiotensin-2; UniProt P01019 25-32, looked up)",changes in blood pressure or pulse rate,"[2]; doses of 0.1 µg to 500 µg in 0.6% by weight hydroxyethyl cellulose solution, even at the highest dose level, 75 or 140 minutes of follow-up",no significant changes in blood pressure or pulse rate
arginine-vasopressin [AVP],function of the gel in radioprotective experiments,[1]; 10 µg per g of 0.2% by weight carboxypolymethylene in sterile deionised water,found to function as intended
same,radioprotection to the mucosa as compared with the controls,"[1]; dose of 10 µg, irradiation 10 min after administration, Table VI, histological grading only",gave radioprotection to the mucosa
same,influence on blood pressure,"[2]; 25 µg in 0.2% by weight carboxypolymethylene solution, pulse rate not measured",without any significant influence on blood pressure
same,influence on blood pressure,"[2]; 50 µg in 0.2% by weight carboxypolymethylene solution, pulse rate not measured",without any significant influence on blood pressure
lysine-vasopressin [LVP],function of the gel in radioprotective experiments,[1]; 32 µg per g of 1.2% by weight hydroxyethyl cellulose in sterile deionised water,found to function as intended
same,radioprotection to the mucosa,"[1]; dose of 16 µg, irradiation 15 min after administration, Table VII",gave radioprotection to the mucosa
same,changes in systemic circulation,[2]; 4 µg in 1.2% by weight hydroxyethyl cellulose solution,without significant changes in systemic circulation
same,changes in systemic circulation,[2]; 8 µg in 1.2% by weight hydroxyethyl cellulose solution,without significant changes in systemic circulation
same,change in blood pressure,"[2]; 10 µg in 0.2% by weight carboxypolymethylene solution, pulse rate not measured",without any significant change in blood pressure
same,change in blood pressure,"[2]; 10 µg in 1% by weight sodiumcarboxymethyl cellulose (CMC) solution, pulse rate not measured",without any change in blood pressure
same,changes in systemic circulation,[2]; 16 µg in 1.2% by weight hydroxyethyl cellulose solution,without significant changes in systemic circulation; also recorded: caused no significant change in systemic circulation
same,change in blood pressure,"[2]; 20 µg in 0.2% by weight carboxypolymethylene solution, pulse rate not measured",without any significant change in blood pressure
same,change in blood pressure,"[2]; 20 µg in 1% by weight sodiumcarboxymethyl cellulose (CMC) solution, pulse rate not measured",without any change in blood pressure
same,pulse rate,[2]; 32 µg in 1.2% by weight hydroxyethyl cellulose solution,No decrease in pulse rate was noted
same,blood pressure,"[2]; 32 µg in 1.2% by weight hydroxyethyl cellulose solution, 5, 10, 15, 20, 25, 30, 45, 75 and 90 minutes after application",caused a rise in blood pressure
same,change in blood pressure,"[2]; 40 µg in 0.2% by weight carboxypolymethylene solution, significant at 10, 15, 20, 25, 45 and 60 minutes after application",gave a rise in blood pressure
same,change in blood pressure,"[2]; 40 µg in 1% by weight sodiumcarboxymethyl cellulose (CMC) solution, pulse rate not measured",without any change in blood pressure
same,change in blood pressure,"[2]; 80 µg in 0.2% by weight carboxypolymethylene solution, significant 5-60 minutes after application",gave a rise in blood pressure
same,change in blood pressure,"[2]; 80 µg in 1% by weight sodiumcarboxymethyl cellulose (CMC) solution, 5-45 minutes after application",caused a rise in blood pressure
